The results in this text go back to patent US8389011B2, “Pharmaceutical compositions of cholesteryl ester transfer protein inhibitors” (Bend Research, Inc., priority 2000, dated 2013).

This data set can be described thus: In vitro dissolution test, microcentrifuge method, in model fasted duodenal solution (MFDS). The data set is classed as physicochemical. The conditions noted are these: summary Table 48. The procedure: The compositions comprising the CETP inhibitor and concentration-enhancing polymer provide enhanced concentration of the dissolved CETP inhibitor in in vitro dissolution tests. It has been determined that enhanced drug concentration in in vitro dissolution tests in Model Fasted Duodenal (MFD) solution or Phosphate Buffered Saline (PBS) is a good indicator of in vivo performance and bioavailability. An appropriate PBS solution is an aqueous solution comprising 20 mM sodium phosphate (Na2HPO4), 47 mM potassium phosphate (KH2PO4), 87 mM NaCl, and 0.2 mM KCl, adjusted to pH 6.5 with NaOH. An appropriate MFD solution is the same PBS solution wherein additionally is present 7.3 mM sodium taurocholic acid and 1.4 mM of 1-palmitoyl-2-oleyl-sn-glycero-3-phosphocholine. In particular, a composition of the present invention can be dissolution-tested by adding it to MFD or PBS solution and agitating to promote dissolution.
A typical in vitro test to evaluate enhanced drug concentration in aqueous solution can be conducted by (1) adding with agitation a sufficient quantity of control composition, typically the CETP inhibitor alone, to the in vitro test medium, typically MFD or PBS solution, to achieve equilibrium concentration of the CETP inhibitor; (2) adding with agitation a sufficient quantity of test composition (e.g., the CETP inhibitor and polymer) in an equivalent test medium, such that if all the CETP inhibitor dissolved, the theoretical concentration of CETP inhibitor would exceed the equilibrium concentration of the CETP inhibitor by a factor of at least 10, and preferably a factor of at least 100; and (3) comparing the measured MDC and/or aqueous concentration versus time AUC of the test composition in the test medium with the equilibrium concentration, and/or the aqueous concentration versus time AUC of the control composition. In conducting such a dissolution test, the amount of test composition or control composition used is an amount such that if all of the CETP inhibitor dissolved the CETP inhibitor concentration would be at least 10-fold and preferably at least 100-fold that of the equilibrium concentration. Indeed, for some extremely insoluble CETP inhibitors, in order to identify the MDC achieved it may be necessary to use an amount of test composition such that if all of the CETP inhibitor dissolved, the CETP inhibitor concentration would be 10,000-fold or even more, that of the equilibrium concentration of the CETP inhibitor.
The concentration of dissolved CETP inhibitor is typically measured as a function of time by sampling the test medium and plotting CETP inhibitor concentration in the test medium vs. time so that the MDC can be ascertained. The MDC is taken to be the maximum value of dissolved CETP inhibitor measured over the duration of the test.
To avoid large CETP inhibitor particulates which would give an erroneous determination, the test solution is either filtered or centrifuged. “Dissolved CETP inhibitor” is typically taken as that material that either passes a 0.45 μm syringe filter or, alternatively, the material that remains in the supernatant following centrifugation. Filtration can be conducted using a 13 mm, 0.45 μm polyvinylidine difluoride syringe filter sold by Scientific Resources under the trademark TITAN®. Centrifugation is typically carried out in a polypropylene microcentrifuge tube by centrifuging at 13,000 G for 60 seconds. Other similar filtration or centrifugation methods can be employed and useful results obtained. For example, using other types of microfilters may yield values somewhat higher or lower (±10-40%) than that obtained with the filter specified above but will still allow identification of preferred dispersions. […]

On to `CCOC(=O)N1c2ccc(C(F)(F)F)cc2[C@@H](N(Cc2cc(C(F)(F)F)cc(C(F)(F)F)c2)C(=O)OC)C[C@H]1CC` [Control 2, [2R,4S]4-[(3,5-bis-trifluoromethyl-benzyl)-methoxycarbonyl-amino]-2-ethyl-6-trifluoromethyl-3,4-dihydro-2H-quinoline-1-carboxylic acid ethyl ester], for which the AUC90 (AUC through 90 min) is listed as less than 88 min-μg/ml. Also, the “Cmax, 90” value (maximum Drug 2 concentration through 90 min) was less than 1 µg/mL.
